Data: ChEMBL document CHEMBL4673219, “Novel 5,6-disubstituted pyrrolo[2,3-d]pyrimidine derivatives as broad spectrum antiproliferative agents: Synthesis, cell based assays, kinase profile and molecular docking study” (Bioorg Med Chem, 2018)

Columns and labels:
[1] = AUClast in Sprague-Dawley rat at 10 mg/kg, po measured up to 24 hrs by LC-MS/MS analysis; format: ADME, organism-based; parameters: route oral, dose 10 mg/kg, time <=24; settings: in vivo
[2] = Oral bioavailability in Sprague-Dawley rat at 10 mg/kg measured up to 24 hrs by LC-MS/MS analysis; format: ADME, organism-based; settings: in vivo
[3] = target: Insulin-like growth factor 1 receptor (Homo sapiens) (UniProt P08069); experiment: Inhibition of human IGF1R at 10 uM using myelin basic protein as substrate incubated for 40 mins in presence of [gamma33P]ATP by scintillation counting method relative to control
Insulin-like growth factor 1 receptor (Homo sapiens), sequence (P08069 31-736 limits assumed): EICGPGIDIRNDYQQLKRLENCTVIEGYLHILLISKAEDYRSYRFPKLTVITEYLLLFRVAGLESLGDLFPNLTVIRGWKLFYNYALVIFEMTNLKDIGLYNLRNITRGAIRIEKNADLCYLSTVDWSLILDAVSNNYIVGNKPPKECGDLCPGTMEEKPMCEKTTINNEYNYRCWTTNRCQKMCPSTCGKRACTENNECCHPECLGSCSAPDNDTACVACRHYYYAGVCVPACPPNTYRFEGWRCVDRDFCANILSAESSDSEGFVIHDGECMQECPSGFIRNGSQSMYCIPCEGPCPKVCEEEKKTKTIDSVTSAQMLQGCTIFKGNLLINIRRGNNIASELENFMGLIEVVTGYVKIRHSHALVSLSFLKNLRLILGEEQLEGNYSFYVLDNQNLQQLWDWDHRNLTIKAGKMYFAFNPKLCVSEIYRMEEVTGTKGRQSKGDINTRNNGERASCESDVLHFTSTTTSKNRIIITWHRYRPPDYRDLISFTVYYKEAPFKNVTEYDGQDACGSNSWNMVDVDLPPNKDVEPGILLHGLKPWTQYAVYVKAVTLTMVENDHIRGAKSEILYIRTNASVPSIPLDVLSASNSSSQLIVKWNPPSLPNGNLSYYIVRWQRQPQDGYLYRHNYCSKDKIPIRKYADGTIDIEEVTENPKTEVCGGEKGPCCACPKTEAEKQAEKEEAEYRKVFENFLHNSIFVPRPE
Insulin-like growth factor 1 receptor (Homo sapiens), sequence (P08069 741-1367 limits assumed): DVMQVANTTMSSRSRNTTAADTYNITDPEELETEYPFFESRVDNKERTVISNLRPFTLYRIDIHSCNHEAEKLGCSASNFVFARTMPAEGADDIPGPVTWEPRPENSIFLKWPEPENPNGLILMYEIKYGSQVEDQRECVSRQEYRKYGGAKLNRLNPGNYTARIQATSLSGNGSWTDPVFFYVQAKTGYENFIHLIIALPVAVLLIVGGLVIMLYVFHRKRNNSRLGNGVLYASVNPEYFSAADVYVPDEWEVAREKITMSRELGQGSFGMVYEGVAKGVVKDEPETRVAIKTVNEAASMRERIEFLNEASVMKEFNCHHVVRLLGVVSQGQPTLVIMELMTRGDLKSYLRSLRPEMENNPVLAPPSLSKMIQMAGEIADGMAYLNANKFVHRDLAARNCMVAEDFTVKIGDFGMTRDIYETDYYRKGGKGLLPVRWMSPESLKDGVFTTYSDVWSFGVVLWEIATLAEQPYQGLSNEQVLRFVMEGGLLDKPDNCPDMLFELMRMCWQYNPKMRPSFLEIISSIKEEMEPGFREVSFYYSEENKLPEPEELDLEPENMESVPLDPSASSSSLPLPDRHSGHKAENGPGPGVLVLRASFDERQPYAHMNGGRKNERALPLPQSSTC

[4] = target: Tyrosine-protein kinase Yes (Homo sapiens) (UniProt P07947); experiment: Inhibition of human YES1 at 10 uM using myelin basic protein as substrate incubated for 40 mins in presence of [gamma33P]ATP by scintillation counting method relative to control
Tyrosine-protein kinase Yes (Homo sapiens), sequence (P07947 2-543 limits assumed): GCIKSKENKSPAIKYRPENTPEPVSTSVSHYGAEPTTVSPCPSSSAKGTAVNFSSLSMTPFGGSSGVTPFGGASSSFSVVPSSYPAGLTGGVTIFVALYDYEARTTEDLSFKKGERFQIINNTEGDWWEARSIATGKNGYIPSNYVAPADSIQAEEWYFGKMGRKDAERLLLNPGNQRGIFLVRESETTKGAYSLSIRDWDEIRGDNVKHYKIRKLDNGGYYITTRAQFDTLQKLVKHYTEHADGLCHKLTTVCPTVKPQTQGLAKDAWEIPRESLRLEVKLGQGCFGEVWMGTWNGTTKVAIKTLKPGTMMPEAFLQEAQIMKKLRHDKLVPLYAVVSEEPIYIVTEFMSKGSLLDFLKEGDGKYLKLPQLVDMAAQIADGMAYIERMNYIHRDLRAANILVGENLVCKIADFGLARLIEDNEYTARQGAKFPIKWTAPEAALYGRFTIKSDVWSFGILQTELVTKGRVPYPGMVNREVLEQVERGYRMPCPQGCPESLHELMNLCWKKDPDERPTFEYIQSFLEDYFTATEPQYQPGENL

[5] = Terminal half life in Sprague-Dawley rat at 10 mg/kg, po measured up to 24 hrs by LC-MS/MS analysis; format: ADME, organism-based; settings: in vivo, read-out: beta t1/2
[6] = AUClast in Sprague-Dawley rat at 10 mg/kg, iv measured up to 24 hrs by LC-MS/MS analysis; format: ADME, organism-based; parameters: route intravenous, dose 10 mg/kg, time <=24; settings: in vivo
[7] = target: Macrophage colony-stimulating factor 1 receptor (Homo sapiens) (UniProt P07333); experiment: Inhibition of human FMS at 10 uM using myelin basic protein as substrate incubated for 40 mins in presence of [gamma33P]ATP by scintillation counting method relative to control
Macrophage colony-stimulating factor 1 receptor (Homo sapiens), sequence (P07333 whole entry): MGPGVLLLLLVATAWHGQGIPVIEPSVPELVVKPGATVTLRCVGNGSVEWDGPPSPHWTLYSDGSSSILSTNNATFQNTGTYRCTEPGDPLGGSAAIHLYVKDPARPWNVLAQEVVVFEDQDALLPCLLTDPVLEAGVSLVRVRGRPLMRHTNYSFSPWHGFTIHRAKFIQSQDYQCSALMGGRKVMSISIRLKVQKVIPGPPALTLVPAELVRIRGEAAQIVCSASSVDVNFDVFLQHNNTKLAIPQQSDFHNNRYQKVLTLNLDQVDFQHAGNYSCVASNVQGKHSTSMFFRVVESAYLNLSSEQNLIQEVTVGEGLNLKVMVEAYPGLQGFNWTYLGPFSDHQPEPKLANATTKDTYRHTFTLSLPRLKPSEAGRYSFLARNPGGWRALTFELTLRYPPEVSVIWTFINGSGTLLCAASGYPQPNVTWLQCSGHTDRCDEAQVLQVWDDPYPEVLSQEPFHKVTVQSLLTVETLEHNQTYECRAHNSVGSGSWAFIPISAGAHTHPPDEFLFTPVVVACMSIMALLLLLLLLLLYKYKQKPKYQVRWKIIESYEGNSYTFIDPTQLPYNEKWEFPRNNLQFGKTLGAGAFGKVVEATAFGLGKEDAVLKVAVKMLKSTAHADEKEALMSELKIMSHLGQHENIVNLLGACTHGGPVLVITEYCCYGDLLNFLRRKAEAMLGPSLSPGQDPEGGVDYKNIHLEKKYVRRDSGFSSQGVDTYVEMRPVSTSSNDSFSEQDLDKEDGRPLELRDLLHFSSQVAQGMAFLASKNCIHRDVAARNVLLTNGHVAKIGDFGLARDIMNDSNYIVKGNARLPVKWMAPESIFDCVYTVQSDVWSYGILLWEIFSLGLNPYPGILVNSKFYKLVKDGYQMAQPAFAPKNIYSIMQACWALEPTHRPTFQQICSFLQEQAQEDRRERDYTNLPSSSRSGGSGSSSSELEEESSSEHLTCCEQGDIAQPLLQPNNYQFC

[8] = AUC (0 to infinity) in Sprague-Dawley rat at 10 mg/kg, iv measured up to 24 hrs by LC-MS/MS analysis; format: ADME, organism-based; parameters: route intravenous, dose 10 mg/kg, time <=24; settings: in vivo
HL-60(TB) [9] = experiment: Growth inhibition of human HL-60(TB) cells incubated for 48 hrs by sulforhodamine B assay; format: functional
A498 = experiment: Growth inhibition of human A498 cells incubated for 48 hrs by sulforhodamine B assay; format: functional
HL-60(TB) [10] = experiment: Growth inhibition of human HL-60(TB) cells assessed as growth percentage at 100 uM incubated for 48 hrs by sulforhodamine B assay relative to control; format: functional; settings: read-out: Activity
[11] = Tmax in Sprague-Dawley rat at 10 mg/kg, po measured up to 24 hrs by LC-MS/MS analysis; format: ADME, organism-based; settings: in vivo
HL-60(TB) [12] = experiment: Growth inhibition of human HL-60(TB) cells assessed as growth percentage at 0.01 uM incubated for 48 hrs by sulforhodamine B assay relative to control; format: functional; settings: read-out: Activity
[13] = Cmax in Sprague-Dawley rat at 10 mg/kg, po measured up to 24 hrs by LC-MS/MS analysis; format: ADME, organism-based; parameters: route oral, dose 10 mg/kg, time <=24; settings: in vivo
[14] = AUC (0 to infinity) in Sprague-Dawley rat at 10 mg/kg, po measured up to 24 hrs by LC-MS/MS analysis; format: ADME, organism-based; parameters: route oral, dose 10 mg/kg, time <=24; settings: in vivo
HL-60(TB) [15] = experiment: Growth inhibition of human HL-60(TB) cells assessed as growth percentage at 0.1 uM incubated for 48 hrs by sulforhodamine B assay relative to control; format: functional; settings: read-out: Activity
SK-MEL-2 [16] = experiment: Growth inhibition of human SK-MEL-2 cells assessed as growth percentage at 100 uM incubated for 48 hrs by sulforhodamine B assay relative to control; format: functional; settings: read-out: Activity
SK-MEL-28 [17] = experiment: Growth inhibition of human SK-MEL-28 cells assessed as growth percentage at 0.01 uM incubated for 48 hrs by sulforhodamine B assay relative to control; format: functional; settings: read-out: Activity
ACHN [18] = experiment: Growth inhibition of human ACHN cells incubated for 48 hrs by sulforhodamine B assay; format: functional
ACHN [19] = experiment: Growth inhibition of human ACHN cells assessed as growth percentage at 100 uM incubated for 48 hrs by sulforhodamine B assay relative to control; format: functional; settings: read-out: Activity
ACHN [20] = experiment: Growth inhibition of human ACHN cells assessed as growth percentage at 0.01 uM incubated for 48 hrs by sulforhodamine B assay relative to control; format: functional; settings: read-out: Activity
SF-539 [21] = experiment: Growth inhibition of human SF-539 cells assessed as growth percentage at 0.1 uM incubated for 48 hrs by sulforhodamine B assay relative to control; format: functional; settings: read-out: Activity
SK-MEL-2 [22] = experiment: Growth inhibition of human SK-MEL-2 cells assessed as growth percentage at 1 uM incubated for 48 hrs by sulforhodamine B assay relative to control; format: functional; settings: read-out: Activity
ACHN [23] = experiment: Growth inhibition of human ACHN cells assessed as growth percentage at 0.1 uM incubated for 48 hrs by sulforhodamine B assay relative to control; format: functional; settings: read-out: Activity
OVCAR-5 [24] = experiment: Growth inhibition of human OVCAR-5 cells assessed as growth percentage at 0.01 uM incubated for 48 hrs by sulforhodamine B assay relative to control; format: functional; settings: read-out: Activity
SK-MEL-28 [25] = experiment: Growth inhibition of human SK-MEL-28 cells assessed as growth percentage at 100 uM incubated for 48 hrs by sulforhodamine B assay relative to control; format: functional; settings: read-out: Activity
OVCAR-5 [26] = experiment: Growth inhibition of human OVCAR-5 cells assessed as growth percentage at 1 uM incubated for 48 hrs by sulforhodamine B assay relative to control; format: functional; settings: read-out: Activity
SK-MEL-2 [27] = experiment: Growth inhibition of human SK-MEL-2 cells assessed as growth percentage at 0.1 uM incubated for 48 hrs by sulforhodamine B assay relative to control; format: functional; settings: read-out: Activity
SK-MEL-28 [28] = experiment: Growth inhibition of human SK-MEL-28 cells assessed as growth percentage at 0.1 uM incubated for 48 hrs by sulforhodamine B assay relative to control; format: functional; settings: read-out: Activity
SF-539 [29] = experiment: Growth inhibition of human SF-539 cells assessed as growth percentage at 0.01 uM incubated for 48 hrs by sulforhodamine B assay relative to control; format: functional; settings: read-out: Activity
SF-539 [30] = experiment: Growth inhibition of human SF-539 cells assessed as growth percentage at 100 uM incubated for 48 hrs by sulforhodamine B assay relative to control; format: functional; settings: read-out: Activity
ACHN [31] = experiment: Growth inhibition of human ACHN cells assessed as growth percentage at 1 uM incubated for 48 hrs by sulforhodamine B assay relative to control; format: functional; settings: read-out: Activity
SK-MEL-2 [32] = experiment: Growth inhibition of human SK-MEL-2 cells assessed as growth percentage at 0.01 uM incubated for 48 hrs by sulforhodamine B assay relative to control; format: functional; settings: read-out: Activity
SK-MEL-28 [33] = experiment: Growth inhibition of human SK-MEL-28 cells assessed as growth percentage at 1 uM incubated for 48 hrs by sulforhodamine B assay relative to control; format: functional; settings: read-out: Activity

CCCCCCCC(=O)Nc1nc2[nH]c(CN3CCN(Cc4cccc(F)c4)CC3)c(CN3CCN(Cc4cccc(F)c4)CC3)c2c(=O)[nH]1
AUC(0-t) at 24 h [1]: 56.7 ng·h/mL
bioavailability [2]: 12.3%
inhibition [3]: 70.3%
inhibition [4]: 45.5%
half-life [5]: 1.66 h
AUC(0-t) at 24 h [6]: 317 ng·h/mL
inhibition [7]: 70.3%
AUC(0-inf) [8]: 498 ng·h/mL
GI50 (HL-60(TB) [9]): 1.74 µM
TGI (HL-60(TB) [9]): 3.75 µM
GI50 (A498; A498): 1.25 µM
TGI (A498; A498): 2.53 µM
CC50 (A498; A498, 48 h, read-out: LC50 (the source's name)): 5.1 µM
growth at 100 µM (HL-60(TB) [10]): -45%
Tmax [11]: 2.25 h
growth at 0.01 µM (HL-60(TB) [12]): 98%
Cmax [13]: 10 ng/mL
AUC(0-inf) [14]: 61.7 ng·h/mL
growth at 0.1 µM (HL-60(TB) [15]): 99%

Nc1nc2[nH]c(CN3CCN(c4cc(Cl)cc(Cl)c4)CC3)c(CN3CCN(c4cc(Cl)cc(Cl)c4)CC3)c2c(=O)[nH]1
growth at 100 µM (SK-MEL-2 [16]): -48%
growth at 0.01 µM (SK-MEL-28 [17]): 94%
GI50 (ACHN [18]): 1.94 µM
TGI (ACHN [18]): 3.9 µM
growth at 100 µM (ACHN [19]): -26%
growth at 0.01 µM (ACHN [20]): 94%
growth at 0.1 µM (SF-539 [21]): 94%
growth at 1 µM (SK-MEL-2 [22]): 114%
growth at 0.1 µM (ACHN [23]): 98%
growth at 0.01 µM (OVCAR-5 [24]): 87%
growth at 100 µM (SK-MEL-28 [25]): -42%
growth at 1 µM (OVCAR-5 [26]): 89%
growth at 0.1 µM (SK-MEL-2 [27]): 115%
growth at 0.1 µM (SK-MEL-28 [28]): 98%
growth at 0.01 µM (SF-539 [29]): 89%
growth at 100 µM (SF-539 [30]): -55%
growth at 1 µM (ACHN [31]): 98%
growth at 0.01 µM (SK-MEL-2 [32]): 109%
growth at 1 µM (SK-MEL-28 [33]): 91%
